Measurements reported in PubChem BioAssay AID652239 (Broad Institute, 2013).
“And” between values parts separate entries of the source, which are not always exact repeats. Identical values can stand only once. The source made the active and inactive calls. The rule behind the calls is not given here.

Test system: V. cholerae BH1578 lux luminescence induction, 6 h
Experiment: Cholera quorum inducers, light production in absence of autoinducers, BH1578 strain, dry powder dose (AID 652239)
Settings: not given
With `O=c1ncn(-c2cc(Cl)cc(Cl)c2)c2ccccc12` the AC40 was 4.71 µM. With `Cc1ccc2cc3c(NC(=O)c4cccs4)nn(C)c3nc2c1` the AC40 was > 80 µM (inactive). With `Cc1cc2nc3c(cc2cc1F)c(NC(=O)c1ccco1)nn3C` the AC40 was 37.2 µM. In the case of `Cn1nc(NC(=O)c2ccco2)c2cc3ccccc3nc21`, the AC40 was 5.43 µM. With `Cn1nc(NC(=O)c2ccco2)c2ccccc21` the AC40 was > 100 µM (inactive). `COc1ccc2cc3c(NC(=O)c4ccco4)nn(C)c3nc2c1` showed an AC40 of 3.82 µM. For `Cc1ccc2cc3c(NC(=O)c4ccco4)nn(C)c3nc2c1`, the AC40 was 11.6 µM and 16.6 µM. For `O=C(Nc1nnc(-c2cccnc2)o1)C1CCCCC1`, the AC40 was > 100 µM (inactive). `O=C(Cc1ccc(-c2ccccc2)cc1)NC1CCC1` showed an AC40 of 1.26 µM. Work on `Cc1cc(F)cc2nc3c(cc12)c(NC(=O)c1ccco1)nn3C` yielded an AC40 of 89.6 µM. With `Cc1cccc(-n2cnc(=O)c3ccccc32)c1` the AC40 was 75.9 µM. In the case of `CCCCCCCCCC(=O)[C@H](O)CC` (racemic), the AC40 was 14.1 µM. For `COc1ccccc1-c1nnc(NC(=O)C2CCCCC2)o1`, the AC40 was > 100 µM (inactive). `O=c1ncn(-c2cccc(F)c2)c2ccccc12` showed an AC40 of 33.8 µM. With `Cc1cc2cc3c(NC(=O)c4ccco4)nn(C)c3nc2cc1C` the AC40 was 42.4 µM. `Cn1nc(NC(=O)c2ccco2)c2cccnc21` showed an AC40 of 22.2 µM. Work on `CC(C)(C)COC(=O)CSc1n[nH]c(=O)[nH]c1=O` yielded an AC40 of 12.5 µM. For `O=C(Cc1ccc(-c2ccccc2)cc1)NC1COC1`, the AC40 was > 100 µM (inactive). `CCn1nnnc1NCc1ccc(C(C)C)cc1` gave an AC40 of 0.563 µM. In the case of `O=C(Nc1nnc(-c2ccc3c(c2)OCCO3)o1)C1CCCCCC1`, the AC40 was > 100 µM (inactive). With `CCCCCCCCCC(=O)C(O)CC` (stereo not drawn) the AC40 was 5.27 µM. For `O=C(Nc1nnc(-c2ccc3c(c2)OCCO3)o1)C1CCCCC1`, the AC40 was 7.31 µM and 2.33 µM. For `O=C(Cc1ccc(-c2ccccc2)cc1)N[C@@H]1CCOC1` (racemic), the AC40 was 96.9 µM. With `Cc1cc(F)c2cc3c(NC(=O)c4ccco4)nn(C)c3nc2c1` the AC40 was > 100 µM (inactive). With `O=c1ncn(-c2cccc(Cl)c2)c2ccccc12` the AC40 was 14.1 µM and 31 µM. With `O=c1ncn(-c2ccccc2)c2ccccc12` the AC40 was > 80 µM (inactive). For `CCc1ccc2cc3c(NC(=O)c4ccco4)nn(C)c3nc2c1`, the AC40 was 58.9 µM.

Test system: not listed separately
Experiment: as above
Settings: V. cholerae BH1578 lux luminescence induction, 6 h; at 35 µM (top of the series)
With `O=C(CC1CCCCC1)Nc1nnc(-c2ccc3c(c2)CCCC3)o1` the activation was 0.052% (inactive).

Same assay, conditions: V. cholerae BH1578 lux luminescence induction, 6 h; at 80 µM (top of the series)
In the case of `Cc1ccc2cc3c(NC(=O)c4ccoc4)nn(C)c3nc2c1`, the activation was 0.029% (inactive). In the case of `O=c1ncn(-c2cccc(Cl)c2)c2cccc(Cl)c12`, the activation was 0.031% (inactive). For `CCOC(=O)c1ccccc1Nc1cccc(Cl)c1`, the activation was 0.006% (inactive). In the case of `O=c1ncn(-c2cccc(Cl)c2)c2ccc(Cl)cc12`, the activation was 8.89% (inactive). For `O=c1nc(Cc2ccccc2)n(-c2cccc(Cl)c2)c2ccccc12`, the activation was 3.07% (inactive). With `CCC(C)(C)C(=O)Nc1nnc(-c2ccc3c(c2)OCCO3)o1` the activation was -0.001% (inactive). With `NC(=O)c1ccccc1Nc1cccc(Cl)c1` the activation was 0.057% (inactive). With `O=C(Nc1nnc(-c2ccc(Cl)cc2)o1)C1CCCCC1` the activation was -0.011% (inactive). For `COc1ccc(-n2cnc(=O)c3ccccc32)cc1Cl`, the activation was 0.3% (inactive). With `COc1cccc(-n2cnc(=O)c3ccccc32)c1` the activation was 2.59% (inactive). With `O=c1nc(-c2ccccc2)n(-c2cccc(Cl)c2)c2ccccc12` the activation was -0.006% (inactive). For `O=c1ncn(-c2ccc(Cl)cc2)c2ccccc12`, the activation was 0.028% (inactive). For `O=c1ncn(-c2ccc(F)c(Cl)c2)c2ccccc12`, the activation was 9.82% (inactive). For `COc1ccc2c(=O)ncn(-c3cccc(Cl)c3)c2c1`, the activation was 0.036% (inactive). For `O=C(CC1CCCCC1)Nc1nnc(-c2cccnc2)o1`, the activation was -0.004% (inactive). In the case of `O=C(Nc1nnc(-c2cccc(Cl)c2)o1)C1CCCCC1`, the activation was 0.061% (inactive). For `O=c1ncn(-c2ccccc2Cl)c2ccccc12`, the activation was 1.17% (inactive). For `O=c1ncn(Cc2ccc(Cl)cc2)c2ccccc12`, the activation was 0.451% (inactive). With `O=C(CSc1nc2c(c(=O)[nH]1)CCCC2)NC1CCCCC1` the activation was 0.193% (inactive). With `NC(=O)c1ccccc1Nc1ccccc1` the activation was 0.161% (inactive). For `Cc1nc(=O)c2ccccc2n1-c1cccc(Cl)c1`, the activation was 18.8% (inactive). For `O=C1C(=O)N(Cc2cccc(Cl)c2)c2ccccc21`, the activation was 0.06% (inactive). In the case of `Cc1ccc2cc3c(NC(=O)C4CCCC4)nn(C)c3nc2c1`, the activation was 11.2% (inactive). For `O=C1C(=O)N(Cc2ccccc2Cl)c2ccccc21`, the activation was 0.075% (inactive). In the case of `COC(=O)c1ccccc1Nc1cccc(Cl)c1`, the activation was 0.61% (inactive). With `O=c1ncn(-c2cccc(Cl)c2)c2cc(Cl)ccc12` the activation was 0.074% (inactive). In the case of `O=c1ncn(-c2ccc(Cl)c(Cl)c2)c2ccccc12`, the activation was 0.032% (inactive). For `O=c1[nH]cnc2ccccc12`, the activation was 0.09% (inactive). With `O=C(O)c1ccccc1Nc1cccc(Cl)c1` the activation was 0.008% (inactive). For `Cc1ccc2c(=O)ncn(-c3cccc(Cl)c3)c2c1`, the activation was 0.04% (inactive). With `CCc1nc(=O)c2ccccc2n1-c1cccc(Cl)c1` the activation was 0.079% (inactive). With `O=C(Nc1nnc(-c2ccc3c(c2)OCCO3)o1)C1CCCC1` the activation was 1.99% (inactive). In the case of `Cc1ccc(-n2cnc(=O)c3ccccc32)cc1Cl`, the activation was 0.07% (inactive). In the case of `Cc1ccc2c(c1)c(=O)ncn2-c1cccc(Cl)c1`, the activation was 6.29% (inactive). In the case of `O=C(Nc1nnc(-c2ccc3c(c2)CCCC3)o1)C1CCC1`, the activation was 0% (inactive). For `Cn1cnc(=O)c2ccccc21`, the activation was 0.029% (inactive). In the case of `O=C(CSc1nc2ccccc2c(=O)[nH]1)NC1CCCCC1`, the activation was 0.004% (inactive).

Same assay, conditions: V. cholerae BH1578 lux luminescence induction, 6 h; at 100 µM (top of the series)
With `c1ccc(CNc2nnc(-c3ccc4c(c3)OCCO4)o2)cc1` the activation was 0.001% (inactive). In the case of `COc1ccc(S(=O)(=O)Nc2nnc(-c3ccc4c(c3)OCCO4)o2)cc1`, the activation was 0.003% (inactive). In the case of `O=C(Nc1nnc(-c2ccc3c(c2)OCCO3)o1)C(F)(F)c1ccccc1`, the activation was -0.004% (inactive). For `O=C(Nc1nnc(-c2ccccc2Cl)o1)C1CCCCC1`, the activation was 0.003% (inactive). For `CN1CCC(C(=O)Nc2nnc(-c3ccc4c(c3)OCCO4)o2)CC1`, the activation was 0.02% (inactive). With `COc1cccc(-c2nnc(NC(=O)C3CCCCC3)o2)c1` the activation was -0.002% (inactive). In the case of `C(=N\c1nnc(-c2ccc3c(c2)OCCO3)o1)/c1ccccc1`, the activation was 0.004% (inactive). In the case of `COc1ccc(-c2nnc(NC(C)=O)o2)cc1`, the activation was 0.028% (inactive). In the case of `O=C(Cc1ccc(-c2ccccc2)cc1)NC1CNC1`, the activation was 0.01% (inactive). With `CC(C)c1ccc2cc3c(NC(=O)c4ccco4)nn(C)c3nc2c1` the activation was 0.153% (inactive). With `Cc1ccc2cc3c(NC(=O)Cc4ccco4)nn(C)c3nc2c1` the activation was 0.407% (inactive). With `CCn1nnnc1/N=C/c1ccc(N2CCCCC2)cc1` the activation was 0.106% (inactive). With `O=C(Nc1nnc(C2CCCC2)o1)C1CCCCC1` the activation was -0.003% (inactive). In the case of `Cc1ccc2cc3c(NC(=O)c4ccccn4)nn(C)c3nc2c1`, the activation was -0.001% (inactive). With `Cn1nc(NC(=O)c2ccco2)c2cc3ccc(C(C)(C)C)cc3nc21` the activation was 0% (inactive). For `O=C(Nc1nnc(-c2ccncc2)o1)C1CCC1`, the activation was 0.028% (inactive). With `O=C(Nc1nnc(-c2ccc3c(c2)OCCO3)o1)C1CCC1` the activation was 0.037% (inactive). With `O=C(Nc1nnc(-c2cccnc2)o1)C1CCC1` the activation was -0.001% (inactive). For `O=C(Nc1nnc(-c2ccc3c(c2)OCCO3)o1)C1CC1`, the activation was 0.001% (inactive). In the case of `O=S(=O)(Nc1nnc(-c2ccc3c(c2)OCCO3)o1)c1ccc(Cl)cc1`, the activation was -0.004% (inactive). For `COc1ccc(-c2nnc(NC(=O)C3CCCCC3)o2)cc1`, the activation was 17.9% (inactive). With `CCn1nnnc1NC(C)c1ccc(N2CCCC2)cc1` (stereo not drawn) the activation was 11.5% (inactive). In the case of `Cc1ccc2cc3c(NC(=O)c4ccc(C)o4)nn(C)c3nc2c1`, the activation was 1.77% (inactive). With `CN(C)/C=N/c1nnc(-c2ccc3c(c2)OCCO3)o1` the activation was 0.022% (inactive). In the case of `CC(C)(C)OC(=O)N1CCC(C(=O)Nc2nnc(-c3ccc4c(c3)OCCO4)o2)CC1`, the activation was 0.011% (inactive). In the case of `CCn1nnnc1N`, the activation was -0.013% (inactive). For `Cc1ccc2cc3c(NC(=O)c4cc5ccccc5o4)nn(C)c3nc2c1`, the activation was 0.014% (inactive). In the case of `Cn1ccc(NC(=O)c2ccco2)n1`, the activation was 0.036% (inactive).
